Experiments:
[1] = system: PTZ-induced clonic and tonic seizures; assay: Timed i.v. pentylenetetrazol (PTZ) infusion seizure threshold test; assay type: in vivo; settings: male ICR mice
Protocol: (§1) Male ICR mice (Harlan Laboratories BV, Netherlands, ICR (CD-1)) weighing 23-25 g were housed under standard conditions (21-23° C., 50%±10% relative humidity, 12 h light-dark cycle) with unlimited access to standard food (R70 diet, Lactamin AB, Sweden) and water. All experimental procedures were carried out in accordance with guidelines of the EU Directive 2010/63/EU and were approved by the Ethics Council of Animal Protection at the Veterinary and Food Service, Riga, Latvia.
(§2) To accurately detect even slight modulatory effects on convulsive tendencies, we employed the more sensitive intravenous (i.v.) administration route of pentylenetetrazol (PTZ) administration (Loscher W, Honack D, Fassbender C P, Nolting B (1991). The role of technical, biological and pharmacological factors in the laboratory evaluation of anticonvulsant drugs. III. Pentylenetetrazole seizure models. Epilepsy Res 8:171-189; Mandhane S N, Aavula K, Rajamannar T (2007). Timed pentylenetetrazol infusion test: a comparative analysis with s.c.PTZ and MES models of anticonvulsant screening in mice. Seizure 16:636-644) and used bicucculine (BIC) to inhibit the GABA pathway and to induce seizures (Meldrum B S (1975). Epilepsy and gamma-aminobutyric acid-mediated inhibition. Int Rev Neurobiol 17:1-36.). Chemoconvulsant-induced clonic and tonic seizures were initiated by inserting a 30-gauge needle into the tail vein of mice and infusing PTZ 1% or BIC 0.01% at a constant rate of 10 μl/1 s to restrained animals. Infusion was halted when forelimb clonus followed by tonic seizures of the full body were observed. Minimal doses of PTZ or BIC (mg/kg of mouse weight) necessary to induce clonic and tonic seizures were considered as an index of seizure threshold.
(§3) 2-(5S-Methyl-2-oxo-4R-phenyl-pyrrolidin-1-yl)-acetamide (E1R) was administered i.p. at doses of 10 and 50 mg/kg. The test session was started 60 min after the administration of E1R or saline.

[2] = system: BIC-induced clonic and tonic seizures; assay: Timed i.v. bicucculine (BIC) infusion seizure threshold test; assay type: in vivo; settings: male ICR mice
Protocol: as §1, §2, §3

[3] = E1R 10 mg/kg i.p. 60 min before 1% PTZ i.v. infusion
[4] = E1R 50 mg/kg i.p. 60 min before 1% PTZ i.v. infusion
[5] = E1R 10 mg/kg i.p. 60 min before 0.01% BIC i.v. infusion
[6] = E1R 50 mg/kg i.p. 60 min before 0.01% BIC i.v. infusion

Compound: C[C@H]1[C@@H](c2ccccc2)CC(=O)N1CC(N)=O [E1R, 2-(5S-Methyl-2-oxo-4R-phenyl-pyrrolidin-1-yl)-acetamide]
- Dose of PTZ, mg/kg ± SEM, Clonic seizure (threshold) [1, 3]: 27 ± 2 mg/kg
- Dose of PTZ, mg/kg ± SEM, Tonic seizure (threshold) [1, 3]: 64 ± 6 mg/kg
- Induction of tonic seizures by PTZ, effect versus saline (in words) ([1]; E1R 10 mg/kg i.p.): significantly reduced the induction of tonic seizures
- Dose of PTZ, mg/kg ± SEM, Clonic seizure (threshold) [1, 4]: 30 ± 1 mg/kg
- Dose of PTZ, mg/kg ± SEM, Tonic seizure (threshold) [1, 4]: 80 ± 8 mg/kg
- Clonic and tonic seizures-inducing doses of PTZ, change versus saline (in words) ([1]; E1R 50 mg/kg i.p.): significant increased
- Dose of BIC, mg/kg ± SEM, Clonic seizure (threshold) [2, 5]: 0.42 ± 0.02 mg/kg
- Dose of BIC, mg/kg ± SEM, Tonic seizure (threshold) [2, 5]: 0.88 ± 0.08 mg/kg
- Dose of BIC, mg/kg ± SEM, Clonic seizure (threshold) [2, 6]: 0.48 ± 0.03 mg/kg
- Dose of BIC, mg/kg ± SEM, Tonic seizure (threshold) [2, 6]: 1.15 ± 0.09 mg/kg
- Clonic and tonic seizures-inducing doses of BIC, change versus saline (in words) ([2]; E1R 50 mg/kg i.p.): significant increased
